# Test results as given in PubChem BioAssay AID1963860 (Molecular Pharmacology Branch, DTP, NCI, 2024).
# System: CN0375-F725-PDC KRAS spheroid viability
# Assay: Anticancer human tumor CN0375-F725-PDC patient-derived colon carcinoma cell line growth inhibition [KRAS2]
# Conditions: spheroids with HUVEC and MSC; for IC50: curve of first compound; for viability, T/C: stronger effect = lower value
# Procedure, shortened: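 KRAS-mutant tumor cells were grown as spheroids with HUVEC endothelial cells and human MSCs as stroma. Targeted agents were tested alone and with KRAS pathway inhibitors. Doses started at or near clinical Cmax, or 10 microM, descending half-log.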
# [1] = second compound 0.0316 µM, first compound 0.0316 µM
# [2] = second compound 0.1 µM, first compound 0.0001 µM
# [3] = second compound 0.1 µM, first compound 0.000316 µM
# [4] = second compound 0.1 µM, first compound 0.001 µM
# [5] = second compound 0.1 µM, first compound 0.00316 µM
# [6] = second compound 0.1 µM, first compound 0.01 µM
# [7] = second compound 0.1 µM, first compound 0.0316 µM
# [8] = second compound 0.316 µM, first compound 0.0001 µM
# [9] = second compound 0.316 µM, first compound 0.000316 µM
# [10] = second compound 0.316 µM, first compound 0.001 µM
# [11] = second compound 0.316 µM, first compound 0.00316 µM
# [12] = second compound 0.316 µM, first compound 0.01 µM
# [13] = second compound 0.316 µM, first compound 0.0316 µM
# [14] = second compound 1 µM, first compound 0.0001 µM
# [15] = second compound 1 µM, first compound 0.000316 µM
# [16] = second compound 1 µM, first compound 0.001 µM
# [17] = second compound 1 µM, first compound 0.00316 µM
# [18] = second compound 1 µM, first compound 0.01 µM
# [19] = second compound 1 µM, first compound 0.0316 µM
# [20] = second compound 3.16 µM, first compound 0.0001 µM
# [21] = second compound 3.16 µM, first compound 0.000316 µM
# [22] = second compound 3.16 µM, first compound 0.001 µM
# [23] = second compound 3.16 µM, first compound 0.00316 µM
# [24] = second compound 3.16 µM, first compound 0.01 µM
# [25] = second compound 3.16 µM, first compound 0.0316 µM
# [26] = second compound 0.1 µM, first compound 0.1 µM
# [27] = second compound 0.1 µM, first compound 0.316 µM
# [28] = second compound 0.1 µM, first compound 1 µM
# [29] = second compound 0.1 µM, first compound 3.16 µM
# [30] = second compound 0.1 µM, first compound 10 µM
# [31] = second compound 0.316 µM, first compound 0.1 µM
# [32] = second compound 0.316 µM, first compound 0.316 µM
# [33] = second compound 0.316 µM, first compound 1 µM
# [34] = second compound 0.316 µM, first compound 3.16 µM
# [35] = second compound 0.316 µM, first compound 10 µM
# [36] = second compound 1 µM, first compound 0.1 µM
# [37] = second compound 1 µM, first compound 0.316 µM
# [38] = second compound 1 µM, first compound 1 µM
# [39] = second compound 1 µM, first compound 3.16 µM
# [40] = second compound 1 µM, first compound 10 µM
# [41] = second compound 3.16 µM, first compound 0.1 µM
# [42] = second compound 3.16 µM, first compound 0.316 µM
# [43] = second compound 3.16 µM, first compound 1 µM
# [44] = second compound 3.16 µM, first compound 3.16 µM
# [45] = second compound 3.16 µM, first compound 10 µM
# [46] = second compound 10 µM, first compound 0.0316 µM
# 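Note: spheroids exposed to agents for 7 days.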
smiles,measurement,setting,value
CC(=O)Nc1cccc(-n2c(=O)n(C3CC3)c(=O)c3c(Nc4ccc(I)cc4F)n(C)c(=O)c(C)c32)c1 + C=CC(=O)N1CCN(c2nc(OCC3CCCN3C)nc3c2CCN(c2cccc4cccc(C)c24)C3)CC1CC#N,IC50,second compound 0.0316 µM,5.65 nM
same,IC50,second compound 0.1 µM,4.91 nM
same,IC50,second compound 0.316 µM,3.19 nM
same,IC50,second compound 1 µM,1.62 nM
same,IC50,second compound 3.16 µM,< 0.1 nM
same,"viability, T/C","second compound 0.0316 µM, first compound 0.0001 µM",91%
same,"viability, T/C","second compound 0.0316 µM, first compound 0.000316 µM",85.7%
same,"viability, T/C","second compound 0.0316 µM, first compound 0.001 µM",67.1%
same,"viability, T/C","second compound 0.0316 µM, first compound 0.00316 µM",53.3%
same,"viability, T/C","second compound 0.0316 µM, first compound 0.01 µM",48.6%
same,"viability, T/C",[1],33.9%
same,"viability, T/C",[2],92.3%
same,"viability, T/C",[3],86%
same,"viability, T/C",[4],66.2%
same,"viability, T/C",[5],54.2%
same,"viability, T/C",[6],44.5%
same,"viability, T/C",[7],30.7%
same,"viability, T/C",[8],86.8%
same,"viability, T/C",[9],77.7%
same,"viability, T/C",[10],61.6%
same,"viability, T/C",[11],50.8%
same,"viability, T/C",[12],38.3%
same,"viability, T/C",[13],28.1%
same,"viability, T/C",[14],81.9%
same,"viability, T/C",[15],73.1%
same,"viability, T/C",[16],53.7%
same,"viability, T/C",[17],41.2%
same,"viability, T/C",[18],35.7%
same,"viability, T/C",[19],25.3%
same,"viability, T/C",[20],19.1%
same,"viability, T/C",[21],20.7%
same,"viability, T/C",[22],9.33%
same,"viability, T/C",[23],12.7%
same,"viability, T/C",[24],1.9%
same,"viability, T/C",[25],7.1%
CC(C)NCC(C(=O)N1CCN(c2ncnc3c2C(C)CC3O)CC1)c1ccc(Cl)cc1 (stereo not given) + C=CC(=O)N1CCN(c2nc(OCC3CCCN3C)nc3c2CCN(c2cccc4cccc(C)c24)C3)CC1CC#N,IC50,second compound 0.0316 µM,> 10000 nM
same,IC50,second compound 0.1 µM,> 10000 nM
same,IC50,second compound 0.316 µM,> 10000 nM
same,IC50,second compound 1 µM,> 10000 nM
same,IC50,second compound 3.16 µM,< 31.6 nM
same,"viability, T/C",[1],106%
same,"viability, T/C","second compound 0.0316 µM, first compound 0.1 µM",105%
same,"viability, T/C","second compound 0.0316 µM, first compound 0.316 µM",101%
same,"viability, T/C","second compound 0.0316 µM, first compound 1 µM",93%
same,"viability, T/C","second compound 0.0316 µM, first compound 3.16 µM",94.2%
same,"viability, T/C","second compound 0.0316 µM, first compound 10 µM",83.2%
same,"viability, T/C",[7],106%
same,"viability, T/C",[26],103%
same,"viability, T/C",[27],98%
same,"viability, T/C",[28],91.7%
same,"viability, T/C",[29],91.4%
same,"viability, T/C",[30],78.2%
same,"viability, T/C",[13],101%
same,"viability, T/C",[31],108%
same,"viability, T/C",[32],94.6%
same,"viability, T/C",[33],87.8%
same,"viability, T/C",[34],85.3%
same,"viability, T/C",[35],71.4%
same,"viability, T/C",[19],103%
same,"viability, T/C",[36],102%
same,"viability, T/C",[37],92.5%
same,"viability, T/C",[38],76.8%
same,"viability, T/C",[39],70.9%
same,"viability, T/C",[40],58.2%
same,"viability, T/C",[25],19.5%
same,"viability, T/C",[41],14.7%
same,"viability, T/C",[42],13.5%
same,"viability, T/C",[43],4.72%
same,"viability, T/C",[44],3.97%
same,"viability, T/C",[45],1.46%
CC(C)NCC(C(=O)N1CCN(c2ncnc3c2C(C)CC3O)CC1)c1ccc(Cl)cc1 (stereo not given) + COc1cc2nc(C)nc(NC(C)c3cc(N)cc(C(F)(F)F)c3)c2cc1OC1CCOC1,IC50,second compound 0.1 µM,> 10000 nM
same,IC50,second compound 0.316 µM,> 10000 nM
same,IC50,second compound 1 µM,> 10000 nM
same,IC50,second compound 3.16 µM,> 10000 nM
same,IC50,second compound 10 µM,< 31.6 nM
same,"viability, T/C",[7],100%
same,"viability, T/C",[26],100%
same,"viability, T/C",[27],87.7%
same,"viability, T/C",[28],88.3%
same,"viability, T/C",[29],84.8%
same,"viability, T/C",[30],74.4%
same,"viability, T/C",[13],95.5%
same,"viability, T/C",[31],97.3%
same,"viability, T/C",[32],88.5%
same,"viability, T/C",[33],85.1%
same,"viability, T/C",[34],81.3%
same,"viability, T/C",[35],71.1%
same,"viability, T/C",[19],93.6%
same,"viability, T/C",[36],93.3%
same,"viability, T/C",[37],85.2%
same,"viability, T/C",[38],80.7%
same,"viability, T/C",[39],74.4%
same,"viability, T/C",[40],65.5%
same,"viability, T/C",[25],88.5%
same,"viability, T/C",[41],81.7%
same,"viability, T/C",[42],76.9%
same,"viability, T/C",[43],66.9%
same,"viability, T/C",[44],62.4%
same,"viability, T/C",[45],50.5%
same,"viability, T/C",[46],16.1%
same,"viability, T/C","second compound 10 µM, first compound 0.1 µM",18.6%
same,"viability, T/C","second compound 10 µM, first compound 0.316 µM",14.8%
same,"viability, T/C","second compound 10 µM, first compound 1 µM",10.8%
same,"viability, T/C","second compound 10 µM, first compound 3.16 µM",8.1%
same,"viability, T/C","second compound 10 µM, first compound 10 µM",5.67%
CC(=O)Nc1cccc(-n2c(=O)n(C3CC3)c(=O)c3c(Nc4ccc(I)cc4F)n(C)c(=O)c(C)c32)c1 + C=CC(=O)N1CCN(c2nc(=O)n(-c3c(C)ccnc3C(C)C)c3nc(-c4c(O)cccc4F)c(F)cc23)C(C)C1,IC50,second compound 0.1 µM,5.8 nM
same,IC50,second compound 0.316 µM,6 nM
same,IC50,second compound 1 µM,4.86 nM
same,IC50,second compound 3.16 µM,6.07 nM
same,IC50,second compound 10 µM,1.89 nM
same,"viability, T/C",[2],94%
same,"viability, T/C",[3],84.2%
same,"viability, T/C",[4],71.2%
same,"viability, T/C",[5],55.7%
same,"viability, T/C",[6],45.1%
same,"viability, T/C",[7],32.4%
same,"viability, T/C",[8],101%
same,"viability, T/C",[9],84%
same,"viability, T/C",[10],72.8%
same,"viability, T/C",[11],54.5%
same,"viability, T/C",[12],45.7%
same,"viability, T/C",[13],34.6%
same,"viability, T/C",[14],98.1%
same,"viability, T/C",[15],86.9%
same,"viability, T/C",[16],77.2%
same,"viability, T/C",[17],51.1%
same,"viability, T/C",[18],44.9%
same,"viability, T/C",[19],33.6%
same,"viability, T/C",[20],97.7%
same,"viability, T/C",[21],92.2%
same,"viability, T/C",[22],73%
same,"viability, T/C",[23],57.1%
same,"viability, T/C",[24],46.2%
same,"viability, T/C",[25],32.9%
same,"viability, T/C","second compound 10 µM, first compound 0.0001 µM",93.7%
same,"viability, T/C","second compound 10 µM, first compound 0.000316 µM",85.1%
same,"viability, T/C","second compound 10 µM, first compound 0.001 µM",56.3%
same,"viability, T/C","second compound 10 µM, first compound 0.00316 µM",43.9%
same,"viability, T/C","second compound 10 µM, first compound 0.01 µM",35.8%
same,"viability, T/C",[46],27.8%
